Literature values in patent US20260024626A1, “TOXICITY […], OPERATION METHOD OF TOXICITY […], AND OPERATION PROGRAM OF TOXICITY […]” (FUJIFILM Corporation, priority 2023, published 2026).
Like-named read-outs stand apart in the source and are kept apart here.

Experiments:
[1] = tested on: TA1537
[2] = tested on: TA1535
[3] = tested on: TA100
[4] = tested on: TA98
[5] = tested on: WP2uvrA
[6] = actual test outcome, as against the positive outcome expected from the assumed metabolic reaction
[7] = With metabolic activation (rat liver extract and coenzyme added)
[8] = Without metabolic activation (no rat liver extract and coenzyme)

Molecule | Ames test result (toxicity), TA1537, Intercalation between base pairs [1, 7] | Ames test result (toxicity), TA1537, Intercalation between base pairs [1, 8] | Ames test result (toxicity), TA1535, Covalent bonding to DNA [2, 7] | Ames test result (toxicity), TA1535, Covalent bonding to DNA [2, 8] | Ames test result (toxicity), TA100, Covalent bonding to DNA [3, 7] | Ames test result (toxicity), TA100, Covalent bonding to DNA [3, 8] | Ames test result (toxicity), TA98, Intercalation between base pairs [4, 7] | Ames test result (toxicity), TA98, Intercalation between base pairs [4, 8] | Ames test result (toxicity), WP2uvrA, Covalent bonding to DNA [5, 7] | Ames test result (toxicity), WP2uvrA, Covalent bonding to DNA [5, 8] | determination in the in vitro toxicity evaluation test [6]
Nc1ccccc1O [compound A] | No | No | No | No | Toxic | No | No | No | No | No | –
monomethylnitrobenzene | – | – | – | – | – | – | – | – | – | – | negative determination
Nc1ccccc1-c1ccccc1 [compound B] | No | No | No | No | Toxic | No | No | No | No | No | –
Nc1ccccc1Cl [compound C] | No | No | No | No | No | No | No | No | No | No | –
